Results reported in ChEMBL document CHEMBL1201862, “PubChem BioAssay data set” (2004).
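Tested at 5 concentrations; 48 h exposure; 96-well plates; endpoints linearly interpolated, else capped at highest concentration. GI50 is the concentration that inhibits growth by half.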 Active and inactive are the calls of the source. Rule as the data show it: active = GI50 up to about 1.1 µM and inactive = higher.

Key:
Experiment in all cases: NCI tumour cell line growth inhibition, 48 h
[1] = tested on: HCT-15
[2] = tested on: SK-MEL-2
[3] = tested on: KM12
[4] = tested on: K562
[5] = tested on: CAKI-1
[6] = tested on: SK-MEL-5
[7] = tested on: MOLT-4
[8] = tested on: IGROV-1
[9] = tested on: HT-29
[10] = tested on: UACC-257
[11] = tested on: DU-145
[12] = tested on: SF-268
[13] = tested on: NCI-H522
[14] = tested on: LOX IMVI
[15] = tested on: SW-620
[16] = tested on: BT-549
[17] = tested on: SR
[18] = tested on: U-251
[19] = tested on: SF-295
[20] = tested on: SNB-75

Structure (SMILES)	GI50 [1] [µM]	GI50 [2]	GI50 [3]	GI50 [4]	GI50 [5]	GI50 [6]	GI50 [7]	GI50 [8]	GI50 [9]	GI50 [10]	GI50 [11]	GI50 [12]	GI50 [13]	GI50 [14]	GI50 [15]	GI50 [16]	GI50 [17]	GI50 [18]	GI50 [19]	GI50 [20]
CCOC(=O)N/N=C(/OCC)c1ccccc1	> 100	> 100 µM (inactive)	> 100 µM (inactive)	> 100 µM (inactive)	> 100 µM (inactive)	> 100 µM (inactive)	> 100 µM (inactive)	> 100 µM (inactive)	> 100 µM (inactive)	> 100 µM (inactive)	> 100 µM (inactive)	> 100 µM (inactive)	> 100 µM (inactive)	> 100 µM (inactive)	> 100 µM (inactive)	> 100 µM (inactive)	> 100 µM (inactive)	> 100 µM (inactive)	> 100 µM (inactive)	–
Cc1ccc(/N=N/c2ccc(N)cc2C)c(S(N)(=O)=O)c1	71.4	> 100 µM (inactive)	> 100 µM (inactive)	75.9 µM (inactive)	> 100 µM (inactive)	77.6 µM (inactive)	64 µM (inactive)	77.3 µM (inactive)	82.4 µM (inactive)	45.2 µM (inactive)	> 100 µM (inactive)	> 100 µM (inactive)	36.4 µM (inactive)	78.5 µM (inactive)	> 100 µM (inactive)	> 100 µM (inactive)	0.478 µM (active)	> 100 µM (inactive)	56.1 µM (inactive)	61.9 µM (inactive)
O=C1NC(N2CCOCC2)=N/C1=C\c1ccco1	> 100	> 100 µM (inactive)	> 100 µM (inactive)	–	> 100 µM (inactive)	> 100 µM (inactive)	> 100 µM (inactive)	> 100 µM (inactive)	> 100 µM (inactive)	> 100 µM (inactive)	> 100 µM (inactive)	> 100 µM (inactive)	> 100 µM (inactive)	> 100 µM (inactive)	> 100 µM (inactive)	> 100 µM (inactive)	> 100 µM (inactive)	> 100 µM (inactive)	> 100 µM (inactive)	> 100 µM (inactive)
O=C(O)Cc1cc(O)c(CC(=O)O)cc1O	> 100	> 100 µM (inactive)	> 100 µM (inactive)	> 100 µM (inactive)	> 100 µM (inactive)	> 100 µM (inactive)	> 100 µM (inactive)	> 100 µM (inactive)	> 100 µM (inactive)	> 100 µM (inactive)	> 100 µM (inactive)	> 100 µM (inactive)	> 100 µM (inactive)	> 100 µM (inactive)	> 100 µM (inactive)	> 100 µM (inactive)	> 100 µM (inactive)	> 100 µM (inactive)	> 100 µM (inactive)	–
Cc1cn(C2CC(N=[N+]=[N-])C(C(=O)O)O2)c(=O)[nH]c1=O (centres undefined)	> 100	> 100 µM (inactive)	> 100 µM (inactive)	> 100 µM (inactive)	> 100 µM (inactive)	< 0.01 µM (active)	> 100 µM (inactive)	> 100 µM (inactive)	> 100 µM (inactive)	> 100 µM (inactive)	> 100 µM (inactive)	> 100 µM (inactive)	> 100 µM (inactive)	–	> 100 µM (inactive)	> 100 µM (inactive)	> 100 µM (inactive)	> 100 µM (inactive)	–	> 100 µM (inactive)
CC(=O)N1C(c2[nH]c3ccccc3c2-c2ccccc2)CCN1c1ccccc1 (centres undefined)	> 10	> 10 µM (inactive)	–	9.18 µM (inactive)	> 10 µM (inactive)	> 10 µM (inactive)	> 10 µM (inactive)	> 10 µM (inactive)	> 10 µM (inactive)	> 10 µM (inactive)	> 10 µM (inactive)	> 10 µM (inactive)	> 10 µM (inactive)	> 10 µM (inactive)	> 10 µM (inactive)	> 10 µM (inactive)	> 10 µM (inactive)	–	> 10 µM (inactive)	> 10 µM (inactive)
CC(=O)C12C[C@](C#N)(N3CCCCCC3)C1C=Cc1ccccc12 (some centres undefined)	> 100	–	> 100 µM (inactive)	> 100 µM (inactive)	> 100 µM (inactive)	> 100 µM (inactive)	> 100 µM (inactive)	> 100 µM (inactive)	> 100 µM (inactive)	> 100 µM (inactive)	> 100 µM (inactive)	> 100 µM (inactive)	> 100 µM (inactive)	–	> 100 µM (inactive)	> 100 µM (inactive)	> 100 µM (inactive)	> 100 µM (inactive)	> 100 µM (inactive)	> 100 µM (inactive)
COC(=O)C(CNC(=O)/C=C/c1ccc(OC(C)=O)c(OC(C)=O)c1)NC(=O)/C=C/c1ccc(OC(C)=O)c(OC(C)=O)c1 (centres undefined)	> 100	> 100 µM (inactive)	> 100 µM (inactive)	64.1 µM (inactive)	> 100 µM (inactive)	> 100 µM (inactive)	30 µM (inactive)	> 100 µM (inactive)	> 100 µM (inactive)	> 100 µM (inactive)	> 100 µM (inactive)	> 100 µM (inactive)	32.1 µM (inactive)	> 100 µM (inactive)	> 100 µM (inactive)	> 100 µM (inactive)	92.9 µM (inactive)	88.7 µM (inactive)	> 100 µM (inactive)	–
COC1C(=O)CCC2(CO2)C1(O)C1(C)OC1CCC(C)C (centres undefined)	29.4	–	10.2 µM (inactive)	32.5 µM (inactive)	> 100 µM (inactive)	21.5 µM (inactive)	40.1 µM (inactive)	48.1 µM (inactive)	22.2 µM (inactive)	> 100 µM (inactive)	5.6 µM (inactive)	78.3 µM (inactive)	> 100 µM (inactive)	–	19.8 µM (inactive)	> 100 µM (inactive)	> 100 µM (inactive)	13.5 µM (inactive)	13.6 µM (inactive)	> 100 µM (inactive)
Clc1ccc(CNc2nc(Cl)c3nc[nH]c3n2)cc1Cl	27	22.3 µM (inactive)	29.2 µM (inactive)	20.3 µM (inactive)	23.2 µM (inactive)	16.7 µM (inactive)	33.6 µM (inactive)	42.7 µM (inactive)	26.4 µM (inactive)	13.5 µM (inactive)	19 µM (inactive)	25.4 µM (inactive)	11.3 µM (inactive)	–	–	24.2 µM (inactive)	26.5 µM (inactive)	36.2 µM (inactive)	20 µM (inactive)	32.1 µM (inactive)
C#CCOCC12C=CC(O1)C1C(=O)OCC12 (centres undefined)	> 100	–	> 100 µM (inactive)	> 100 µM (inactive)	> 100 µM (inactive)	> 100 µM (inactive)	> 100 µM (inactive)	> 100 µM (inactive)	> 100 µM (inactive)	> 100 µM (inactive)	> 100 µM (inactive)	> 100 µM (inactive)	> 100 µM (inactive)	> 100 µM (inactive)	> 100 µM (inactive)	> 100 µM (inactive)	> 100 µM (inactive)	> 100 µM (inactive)	> 100 µM (inactive)	> 100 µM (inactive)
C[C@]12CC[C@H]3[C@@H](CCC4=CC(=O)CC[C@@]43C)[C@@H]1CC[C@@H]2C(=O)Nc1ccc([N+](=O)[O-])c(C(F)(F)F)c1	12	17.5 µM (inactive)	16 µM (inactive)	26.6 µM (inactive)	18.7 µM (inactive)	14.3 µM (inactive)	24.2 µM (inactive)	22.8 µM (inactive)	18.2 µM (inactive)	> 10 µM (inactive)	20.7 µM (inactive)	21.4 µM (inactive)	17.2 µM (inactive)	15.8 µM (inactive)	20.9 µM (inactive)	19.4 µM (inactive)	23.7 µM (inactive)	17.1 µM (inactive)	17.1 µM (inactive)	–
O=C(O)Cc1cc(Cl)ccc1O	> 100	> 100 µM (inactive)	> 100 µM (inactive)	–	> 100 µM (inactive)	> 100 µM (inactive)	–	> 100 µM (inactive)	> 100 µM (inactive)	> 100 µM (inactive)	> 100 µM (inactive)	> 100 µM (inactive)	> 100 µM (inactive)	> 100 µM (inactive)	> 100 µM (inactive)	> 100 µM (inactive)	> 76.9 µM (inactive)	> 100 µM (inactive)	> 100 µM (inactive)	> 100 µM (inactive)
O=C1O[C@H](COC(=O)c2ccccc2)[C@@H](OC(=O)c2ccccc2)C=C1OC(=O)c1ccccc1	17.7	23.5 µM (inactive)	33.7 µM (inactive)	24.3 µM (inactive)	23.8 µM (inactive)	19 µM (inactive)	23.1 µM (inactive)	21.5 µM (inactive)	–	25.7 µM (inactive)	36.6 µM (inactive)	18.3 µM (inactive)	20.2 µM (inactive)	19.8 µM (inactive)	19 µM (inactive)	16.4 µM (inactive)	18.5 µM (inactive)	18.2 µM (inactive)	17.8 µM (inactive)	25.8 µM (inactive)
OCC(O)COCn1cc(Cn2ncc3c(O)ncnc32)nn1 (centres undefined)	> 100	> 100 µM (inactive)	> 100 µM (inactive)	> 100 µM (inactive)	> 100 µM (inactive)	> 100 µM (inactive)	> 100 µM (inactive)	> 100 µM (inactive)	> 100 µM (inactive)	> 100 µM (inactive)	> 100 µM (inactive)	–	28.5 µM (inactive)	> 100 µM (inactive)	> 100 µM (inactive)	> 100 µM (inactive)	> 100 µM (inactive)	> 100 µM (inactive)	> 100 µM (inactive)	–
